US5002949A, “5-substituted-6-aminopyrimidine derivatives” (American Home Products Corporation, priority 1990, dated 1991)
Where a name gives a salt, the structure may show the parent alone.

What was measured:
[1] = tested on: platelet aggregation induced by epinephrine; experiment: inhibition of platelet aggregation induced by epinephrine; type: cell-based; settings: Epinephrine (second phase)
Source text: (§1) As representative compounds, 5-bromo-6-[[(5-bromo-3-pyridinylmethyl]amino]-2-methyl-4(1H)-pyrimidinone,HBr (Compound A) and 5-cyano-2-methyl-6-[[3-pyridinyl)methyl)]amino]-4(1H)-pyrimidinone hydrochloride (Compound B) inhibited platelet aggregation as follows.

[2] = tested on: platelet aggregation induced by adenosine diphosphate; experiment: inhibition of platelet aggregation induced by adenosine diphosphate (ADP); type: cell-based; settings: ADP (second phase)
Source text: as §1

[3] = tested on: platelet aggregation induced by arachidonic acid; experiment: inhibition of platelet aggregation induced by arachidonic acid; type: cell-based
Source text: as §1

[4] = tested on: platelet aggregation induced by U46619 (endoperoxide); experiment: inhibition of platelet aggregation induced by U46619 (endoperoxide); type: cell-based
Source text: as §1

[5] = tested on: platelet aggregation induced by collagen; experiment: inhibition of platelet aggregation induced by collagen; type: cell-based
Source text: as §1

white thrombus formation = experiment: inhibition of white thrombus formation in the rabbit arteriovenous model; type: in vivo

IC50 [1] [µM] | IC50 [2] [µM] | IC50 [3] [nM] | IC50 [4] [µM] | IC50 [5] [µM] | SMILES | Percent Inhibition (thrombus weight) (white thrombus formation; 0.5 mg/kg i.v.) [%] | Percent Inhibition (thrombus weight) (white thrombus formation; 1.0 mg/kg i.v.) [%] | Percent Inhibition (thrombus weight) (white thrombus formation; 5.0 mg/kg i.v.) [%] | Percent Inhibition (thrombus weight) (white thrombus formation; 0.1 mg/kg i.v.) [%] | Percent Inhibition (thrombus weight) (white thrombus formation; 0.25 mg/kg i.v.) [%]
10.8 | 6.3 | 2800 | 6.6 | 13.3 | Cc1nc(NCc2cccnc2)c(C#N)c(=O)[nH]1 [Compound B, 5-cyano-2-methyl-6-[[3-pyridinyl)methyl)]amino]-4(1H)-pyrimidinone hydrochloride] | 41.7 | 56.8 | 76.7 |  | 
0.43 | 0.2 | 180 | 0.21 | 0.54 | Cc1nc(NCc2cncc(Br)c2)c(Br)c(=O)[nH]1 [Compound A] |  |  |  | 28.4 | 47.1
